The values below come from US20260337177A1, “TEAD CORE INHIBITORS FOR CANCER THERAPEUTICS” (University of Florida Research Foundation, Incorporated, priority 2023, published 2026).

The subject of one data set is YAP/TEAD. To be noted: literature; cited from earlier work.
In data set [1] the test system is TEAD. To be noted: literature; cited from earlier work.
The subject of another data set is TEADs. Nature of the data set: TEAD-specific 8×GTIIC-luciferase reporter assay. As to conditions: for inhibition at 10 µM: 8×GTIIC-luciferase, read-out: Luciferase reporter assay inhibitory rate; for IC50: dose response, read-out: TEADs transcription inhibition IC50, luciferase reporter assay. Format: cell-based. As for the experimental part: A series of compounds featuring a chloromethyl ketone moiety were synthesized (Schemes 1-4). The inhibitory rate of this series of compounds was tested using 8×GTIIC-luciferase reporter assay at 10 μM.
Next, the inhibition of TEAD transcription activity of compounds was tested varying the dosage using the 8×GTIIC-luciferase reporter assay. […] The aim was to determine whether its inhibition of TEAD transcription can lead to downregulation of the YAP-TEAD target genes. CTGF is one of the best characterized (bona fide) target gene of YAP and TAZ.
To further investigate the mechanism of the inhibitory effect of compounds in Huh7 cells, TEADs specific luciferase reporter assays were performed with compounds 22 and 12 at several concentrations. […] TEAD downstream gene expression patterns were evaluated in liver cancer cells Huh7, which has been evidenced with relative high expression of YAP and TEAD2.
HEK 293T cells were plated at 2×10^4 cells/well in a 96 well microplate and were transfected with 50 ng of 8×GTIIC-luciferase plasmid (Addgene #34615) and 0.5 ng of pRL-CMV (Promega #E226A) by using lipofectamine 3000 (Life Technologies #L3000). The 8×GTIIc-luciferase reporter is a Yap/Taz-activity reporter containing eight TEAD consensus binding sequences. After 6 h, transfected cells were treated with various concentrations of compounds or DMSO control. Luciferase signals were measured using the Dual Luciferase Reporter Assay System (Promega, E1960) according to the manufacturer's instructions. Experiments were performed in triplicate and repeated at least three times.

The test system of a further data set is Huh7 cells. Nature of the data set: Huh7 cell proliferation assay (CCK8). Format: cell-based, human. To be noted: Homo sapiens, Huh-7, 72 h; 3 days; CCK8; mean ± SD of three independent experiments; read-out: Cell proliferation assay IC50, Huh7. As for the experimental part:
CCK8 assay kit was used to determine antiproliferative activity of synthesized compounds against Huh7 cell line. First, Huh7 cells were seeded into 96-well plates at a density of 3000 cells/well and incubated overnight. Cells were then co-incubated with compounds at 8 concentrations for 72 h. Then, the cell proliferation was determined by the CCK8 kit according to the standard protocol. Experiments were performed in triplicate.

Data set [2] in a line: AML12 normal liver cell growth inhibition (CCK8). Format: cell-based. As to conditions: mouse, aml12 cells.
For the next data set, the system named is AML12 cells. The data set is described as follows: AML12 normal liver cell growth inhibition (CCK8). Format: cell-based. To be noted: for Inhibitory rate, AML12 (inhibitory percentage of AML12 cell growth): 10 μM, 3 days.
In data set [3] the test system is CTGF. The data set is described as follows: CTGF mRNA expression by RT-qPCR in Huh7 cells. The format is cell-based, human. To be noted: dose-dependent. As for the experimental part:
Huh7 and HepG2 liver cancer cells were seeded at 1×10^6 cells/dish and allowed to adhere overnight. The cells were then treated with indicated doses of compounds in medium for 24 hours. The cells were then harvested, and total RNA was purified using the Aurum total RNA mini kit (Bio-Rad #732-6820) according to the manufacturer's instructions. Complementary DNA was synthesized from 500 ng total RNA template by iScript reverse transcription kit (Bio-Rad #1725037) according to the manufacturer's instructions. Real-time PCR reactions utilized 60 ng cDNA and PrimePCR primers from Bio-Rad (Unique Assay ID: human GAPDH-qHsaCEP0041396, human CTGF-qHsaCEP0024255, human CYR61-qHsaCEP0024230) designed for SYBR Green gene expression analysis (Bio-Rad #1726270). All reactions were carried out in triplicate using Quant Studio 3 PCR system (Applied Biosystems). Relative gene expression level was quantified via ΔΔCt method by using GAPDH as an endogenous reference.

For data set [4], the system named is CTGF. The data set is described as follows: CTGF protein expression by western blotting in Huh7 cells. Format: cell-based, human. To be noted: dose-dependent. As for the experimental part:
Treated Huh7 cells were harvested and lysed in cold RIPA lysis buffer containing […] and phosphatase inhibitors. The protein concentrations were determined using the BCA Protein Assay kit. The prepared protein samples were loaded on and separated by 10% SDS-PAGE gel and then were transferred to PVDF membrane. Blots were blocked for 1 h at RT in blocking buffer and incubated with corresponding primary antibodies: anti-CTGF (ab227180), and anti-GAPDH (ab9485), at 4 ° C overnight. Then the blots were incubated with HRP-conjugated anti-rabbit secondary antibody in blocking buffer for 1.5 h at RT. The membranes were imaged with ChemiDoc MP imaging system.

In data set [5] the test system is TEAD. Nature of the data set: Fluorescence polarization assay. To be noted: FIG. 1D. The format is binding. The text has this:
FIGS. 1A-1D depict discovery of C-3 as moderate TEAD transcription inhibitor. (FIG. 1A) The flowchart of the docking-based virtual screening campaign. (FIG. 1B) Predicted binding mode of C-3 in TEAD2 lipid binding pocket.

The test system of data set [6] is YAP. As to conditions: literature; cited from earlier work.
The test system of the next data set is YAP-TEAD. As to conditions: all four TEAD family members; cited from earlier work.
Data set [7] deals with YAP. As to conditions: literature; cited from earlier work. The source holds these as a separate data set.
A further data set concerns Huh7 xenograft. The data set is described as follows: Huh7 mouse xenograft model, antitumor efficacy. Format: in vivo, NSG mouse. As to conditions: Sorafenib 100 mg/kg oral every three days for 24 days. As for the experimental part:
Based on the favorable in vitro potency and low toxicity, the in vivo antitumor efficacy of compound 22 was further evaluated in the NSG mouse (NOD scid gamma mouse) xenograft model from human Huh7 cells. Sorafenib, the first-line treatment for primary hepatocellular carcinoma (HCC) patients, served as the control. Compound 22 was tested as a monotherapy and in combination with Sorafenib.
The animals were administered 10 mg/kg of compound 22 twice a week for four weeks via intraperitoneal (IP) injection.
The mice were administered 50 mg/kg of compound 22 every three day for 24 days via intraperitoneal (IP) injection. Sorafenib was administered orally at a dose of 100 mg/kg following the same schedule.
Tumors were implanted by subcutaneous injection of 5×10^6 Huh7 cells in 100 μL of PBS containing 10% matrix gel (Coming, NY, USA), into the right flank of the mouse. When the tumor volume reached about 85 mm^3, mice were randomized into the vehicle control group (n=5) and a treatment group (n=5). The vehicle group (n=5) received the vehicle only (50% phosal 50 PG, 45% miglyol 810 N and 5% polysorbate 80), while the treatment group (n=5) was given compound 22 (50 mg/kg in 50% phosal 50 PG, 45% miglyol 810 N and 5% polysorbate 80) via IP injection every three days. After 24 days, mice were euthanized. Sorafenib (100 mg/kg, every three day) was dissolved in 75% Ethanol and Cremophor EL (1:1) and administered directly into the animals' stomachs using a gastric probe. Tumor size and body weight were measured every 3 days, and tumor volume was estimated using the formula volume=½×length×width^2. Tumor growth inhibition value (TGI) was calculated as TGI (%) [1−Vt/Vc]×100, where Vc and Vt were […].

Values joined by “and” are separate entries in the source; they are usually repeats but may differ in a detail not shown here. Equal values may be shown once.

On to `Cc1ccc2c(c1)c1c3n2CCNC3CCC1` (centres unmarked) [CPD3.1], for which the “YAP/TEAD interaction, co-IP” value with YAP/TEAD is recorded as “disrupt YAP/TEAD interaction”. The TEAD reporter activity result in the data set on TEAD [1] was “inhibits TEAD reporter activity”.

Consider `O=C(CCl)c1c[nH]c2cc(Cl)c(OCc3ccc4ccccc4c3)cc12` [Compound 2, 2-chloro-1-(6-chloro-5-(naphthalen-2-ylmethoxy)-1H-indol-3-yl)ethan-1-one], for which the inhibition at 10 µM came out at 95.6% with TEADs and 32% in data set [2] ("at 10 M", read-out: Inhibitory rate of AML cells). Also, the IC50 in the data set with TEADs is 890 nM and 870 nM; in the data set on Huh7 cells it was 2300 ± 600 nM. In addition, the “TEAD transcription inhibition, luciferase reporter” value in the data set with TEADs (varying dosage, FIGS. 3A-3B) is given as “potent inhibition activity”. In addition, the “Toxicity towards normal liver cell line AML12” value with AML12 cells is given as “least toxic of the covalent compounds”. The “Inhibitory rate, AML12 (inhibitory percentage of AML12 cell growth)” value in the data set with AML12 cells came to 32.1%. The “CTGF mRNA expression, Huh7” value in the data set on CTGF [3] is “significantly decreased”. Further, the “CTGF protein expression, Huh7” value in the data set on CTGF [4] is “dose-dependent decrease”.

For the compound `O=C(CCl)NCc1c[nH]c2cc(Cl)c(OCc3ccccc3)cc12` [Compound 12, N-((5-(benzyloxy)-6-chloro-1H-indol-3-yl)methyl)-2-chloroacetamide], in the data set with TEADs, the inhibition at 10 µM is 97.8% and the IC50 was determined as 629 nM. In addition, in the data set on Huh7 cells, the IC50 was determined as 1200 ± 300 nM. The “Inhibitory rate, AML12 (inhibitory percentage of AML12 cell growth)” value in the data set with AML12 cells was determined as 34.2%. Further, the “CTGF mRNA expression, Huh7” value with CTGF [3] is “suppressed”. In the data set with CTGF [4], the “CTGF protein expression, Huh7” value is “suppression of CTGF protein production”.

As to `Clc1cc2[nH]ccc2cc1OCc1ccccc1` [Compound C-3], in the data set with TEADs, the inhibition at 10 µM is 68.3% and the IC50 was 5000 nM. For the same compound, the IC50 with Huh7 cells is 32500 nM. Also, the inhibition at 72 h, 10 µM in [2] (10 μM, 3 days, read-out: Inhibitory rate, AML12 (inhibitory percentage of AML12 cell growth)) turned out to be 20%. The “Fluorescence polarization, inhibition” value with TEAD [5] was “inhibition”.

For `COc1ccc(-c2cc(-c3ccccc3)nc3c2CC(=O)Nc2ccccc2-3)cc1OC` [NSC682769], the YAP binding entry with YAP [6] is recorded as “directly bind to YAP”. For the same compound, the “Association of YAP with TEAD family members” value in the data set with YAP-TEAD is “inhibit its association with all four TEAD family members”. For the same compound, the YAP expression entry with YAP [7] is listed as “attenuates YAP expression”.

Regarding `CNC(=O)c1cc(Oc2ccc(NC(=O)Nc3ccc(Cl)c(C(F)(F)F)c3)cc2)ccn1` [Sorafenib, reference compound], the “Tumor growth inhibition (TGI) rate” value in the data set with Huh7 xenograft stood at 76%.
